From patent US12109204B2, “Methods for treating muscular dystrophies” (The Regents of the University of California, priority 2018, dated 2024)
“Also recorded” adds a separate entry of the source.

Legend:
Assay type in all cases: cell-based, murine
[1] = test system: hSSPN-EGFP myotubes (human sarcospan promoter reporter in C2C12); experiment: hSSPN-EGFP reporter myotube assay (high-content imaging); details: for hit call in an earlier assay: no details given; for hSSPN-EGFP reporter activity, counterscreen: doses between 3.9 nm to 1 μM, 48 hours (FIG. 10a)
[2] = test system: hSSPN-EGFP myotubes (human sarcospan promoter reporter in C2C12); experiment: as above; details: for fluorescence intensity over vehicle, primary screen hit call: primary screen of 3,200 molecules, 5.5 μM, 48 hours, n=1, hit cutoff 1.4-fold; for hSSPN-EGFP RFU, Plate 1 / hSSPN-EGFP RFU, Plate 2: retest of screen hits at 5.5 μM; for hSSPN-EGFP RFU, Plate 1: Plate 1, n=24 per plate; for hSSPN-EGFP RFU, Plate 2: Plate 2, n=24 per plate
Procedure: (§1) C2C12 immortalized murine myoblasts cultured in growth media consisting of DMEM (Gibco) with 20% Fetal Bovine Serum (Sigma-Aldrich) at 37° C. with 5% CO2 were transfected with the hSSPN-EGFP or hSSPN-Luciferase linearized plasmids using Lipofectamine 3000 Transfection Reagent (Thermo Fisher Scientific). Transfected cells were selected using 800 μg/ml of G418 (Sigma-Aldrich) for 4 weeks to generate stable cell lines expressing reporter protein under control of the human SSPN promoter.
hSSPN-EGFP myoblasts were seeded at 500 cells per well in 50 μl of growth media in 384-well black, clear bottom microplates (Greiner) using a Multidrop 384 (Thermo Fisher Scientific) and incubated for 3 days. Upon reaching confluency, the growth media was replaced with 50 μl of differentiation media consisting of DMEM with 2% horse serum (Sigma-Aldrich) using an EL406 combination washer dispenser (Biotek). At day 2 of differentiation, the media on the cells was aspirated, left with a residual volume of 10 μl, and replaced with 30 μl of fresh differentiation media. 0.5 μl of small molecule in DMSO or DMSO alone (for vehicle and positive control wells) was added to each well using a Biomek Fx (Beckman). To ensure proper mixing of the DMSO, 50 μl of additional differentiation media was added to all wells except the positive control treated wells, which instead received 50 μl of media containing insulin transferrin selenium (ITS, Gibco) to reach a final concentration of 1% ITS. The final concentration of drug in each treated well was 5.5 μM in 0.55% DMSO and 0.55% DMSO for vehicle and positive control treated wells. After 48 hours of incubation, the media was replaced with Fluorobrite DMEM (Gibco) and each plate was imaged using ImageXpress Micro Confocal High Content Imaging System (Molecular Devices). The fluorescent intensity of imaged cells was determined using MetaXpress Analysis software (Molecular Devices). Analysis setting were as follows: top hat (size: 12, filter shape: circle), adaptive threshold (source: top hat, minimum width: 10, maximum width: 800, intensity above local background: 500), filter mask (filter type: minimum area filter, minimum value: 500). […]

[3] = test system: hSSPN-Luciferase reporter cells (human sarcospan promoter reporter in C2C12); experiment: hSSPN-Luciferase reporter assay (Bright-Glo); details: doses between 3.9 nm to 1 μM, 48 hours (FIG. 10b)
Procedure: as §1
hSSPN-Luciferase myoblasts were cultured as described above. After 48 hours of treatment, plates were allowed to equilibrate to room temperature before the media was aspirated using an EL406 combination washer dispenser at room temperature. Bright-Glo luciferase assay system reagent (Promega) and differentiation media were added to cells at a 1:2 dilution using a Multidrop 384. After a 3-minute incubation at room temperature, luminescence signal was quantified using an Envision plate reader (PerkinElmer). The relative luminescence units were analyzed to determine fold change of treated over vehicle treated cells.
Cells were treated for 48 hours beginning at day 2 of differentiation with DMSO (vehicle control, ATCC), felodipine (Sigma), nilvadipine (Sigma), alloxazine (Sigma), GW5074 (Sigma), methylthioadenosine (Santa Cruz Biotechnology), or ezutromid (Cayman Chemicals) diluted in cell type specific differentiation media at doses listed in the figures. For gene expression studies, each treatment was performed in duplicate. For protein studies, each treatment was performed with single or double replicates.

[4] = test system: UTRN, utrophin; experiment: UTRN gene expression by qPCR in C2C12 wild-type myotubes; details: C2C12 myotubes, 48h, normalized to GAPDH, n=2 (FIG. 11a); felodipine 10 μM
Procedure: RNA from myotubes treated for 48 hours was extracted from cells using Trizol-based (Thermo Fisher Scientific) phase separation. RNA concentrations were determined using a NanoDrop 1000 (Thermo Fisher Scientific) and 750 ng of RNA in a 20 μl reaction was reverse transcribed using iScript cDNA synthesis (Bio-Rad) with the following cycling conditions: 25° C. for 5 minutes, 42° C. for 30 minutes, 85° C. for 5 minutes. For quantitative PCR, SsoFast EvaGreen Supermix (Bio-Rad), 400 nM of each optimized forward and reverse primer (for primer descriptions see Table 1), and cDNA corresponding to 37.5 ng RNA were used to amplify cDNA measured by Applied Biosystems 7300 (Thermo Fisher Scientific) with the following reaction conditions: 55° C. for 2 minutes, 95° C. for 2 minutes, 40 cycles of 95° C. for 10 seconds and 62° C. for 30 seconds, and dissociation stage. Each sample was run in triplicate. Data was analyzed using the ddCT method and normalized to reference gene, GAPDH or β-actin, with vehicle-treated samples serving as the calibrator (relative expression of vehicle control=1). C2C12 cells (American Type Culture Collection) were grown at 37° C. with 5% CO2 in growth media containing DMEM (Gibco) with 20% FBS (Sigma-Aldrich). Upon reaching confluency, the media was replaced with differentiation media containing DMEM with 2% horse serum (Sigma-Aldrich). […]

[5] = test system: SSPN, sarcospan; experiment: SSPN gene expression by qPCR in C2C12 wild-type myotubes; details: 48h, normalized to GAPDH, n=2 (FIG. 11b), felodipine 10 μM
Procedure: RNA from myotubes treated for 48 hours was extracted from cells using Trizol-based (Thermo Fisher Scientific) phase separation. RNA concentrations were determined using a NanoDrop 1000 (Thermo Fisher Scientific) and 750 ng of RNA in a 20 μl reaction was reverse transcribed using iScript cDNA synthesis (Bio-Rad) with the following cycling conditions: 25° C. for 5 minutes, 42° C. for 30 minutes, 85° C. for 5 minutes. For quantitative PCR, SsoFast EvaGreen Supermix (Bio-Rad), 400 nM of each optimized forward and reverse primer (for primer descriptions see Table 1), and cDNA corresponding to 37.5 ng RNA were used to amplify cDNA measured by Applied Biosystems 7300 (Thermo Fisher Scientific) with the following reaction conditions: 55° C. for 2 minutes, 95° C. for 2 minutes, 40 cycles of 95° C. for 10 seconds and 62° C. for 30 seconds, and dissociation stage. Each sample was run in triplicate. Data was analyzed using the ddCT method and normalized to reference gene, GAPDH or β-actin, with vehicle-treated samples serving as the calibrator (relative expression of vehicle control=1). C2C12 cells (American Type Culture Collection) were grown at 37° C. with 5% CO2 in growth media containing DMEM (Gibco) with 20% FBS (Sigma-Aldrich). Upon reaching confluency, the media was replaced with differentiation media containing DMEM with 2% horse serum (Sigma-Aldrich). Conditionally immortalized H2K mdx myoblast cells with a nonsense mutation in exon 23 of dystrophin were a gift from Terrance Partridge, Ph.D. (Children's National Medical Center, Washington, D.C.). Cells were allowed to proliferate on 0.01% gelatin (Sigma-Aldrich) coated plates at 33° C. with 5% CO2 with growth media containing DMEM, 20% HI-FBS (Invitrogen), 2% L-glutamine (Sigma-Aldrich), 2% chicken embryo extract (Accurate Chemical), 1% penicillin-streptomycin (Sigma-Aldrich), and 20U/ml of fresh interferon gamma (Gibco). For differentiation, H2K mdx myoblasts were seeded on plates coated with 0.1 mg/ml matrigel (Corning) diluted in DMEM and grown in proliferation conditions. […]

SMILES | hit call in an earlier assay [1] | fluorescence intensity over vehicle, primary screen hit call [2] | hSSPN-EGFP RFU, Plate 1 [2] [RFU] | hSSPN-EGFP RFU, Plate 2 [2] [RFU] | hSSPN-Luciferase reporter activity, counterscreen [3] | hSSPN-EGFP reporter activity, counterscreen [1] | UTRN gene expression relative to vehicle [4] | SSPN gene expression relative to vehicle [5]
CC[n+]1c(C=CC=C2N(C)c3ccccc3C2(C)C)sc2ccccc21.[I-] [AC-93253, 2-[3-(1,3-Dihydro-1,3,3-trimethyl-2H-indol-2-ylidene)-1-propenyl]-3-ethyl-benzothiazolium iodide] | among the hits |  |  |  |  |  |  | 
CCOC(=O)C1=C(C)NC(C)=C(C(=O)OCC)C1c1ccccc1/C=C/C(=O)OC(C)(C)C [Lacidipine, diethyl 2,6-dimethyl-4-[2-[(E)-3-[(2-methylpropan-2-yl)oxy]-3-oxoprop-1-enyl]phenyl]-1,4-dihydropyridine-3,5-dicarboxylate] |  | hits | 1.3 | 1.2 |  |  |  | 
COC(=O)C1=C(C)NC(C)=C(C(=O)OC)C1c1ccccc1[N+](=O)[O-] [Nifedipine, dimethyl 2,6-dimethyl-4-(2-nitrophenyl)-1,4-dihydropyridine-3,5-dicarboxylate] |  | hits | 1.3 | 1.0 |  |  |  | 
CSC[C@H]1O[C@@H](n2cnc3c(N)ncnc32)[C@H](O)[C@@H]1O [methylthioadenosine, (2R,3R,4S,5S)-2-(6-aminopurin-9-yl)-5-(methylsulfanylmethyl)oxolane-3,4-diol] | among the hits |  |  |  | increased activity | increased activity |  | 
COC(=O)C1=C(C)NC(C)=C(C(=O)OC(C)C)C1c1cccc2nonc12 (centres unmarked) [Isradipine, 3-O-methyl 5-O-propan-2-yl 4-(2,1,3-benzoxadiazol-4-yl)-2,6-dimethyl-1,4-dihydropyridine-3,5-dicarboxylate] |  | hits | 1.5 | 1.4 |  |  |  | 
O=C1Nc2ccc(I)cc2/C1=C/c1cc(Br)c(O)c(Br)c1 [GW5074, (3Z)-3-[(3,5-dibromo-4-hydroxyphenyl)methylidene]-5-iodo-1H-indol-2-one] |  | hits | 1.2 | 1.2 | increased activity | increased activity |  | 
Nc1nc(=O)c2ncn(COCCO)c2[nH]1 [Acyclovir, 2-amino-9-(2-hydroxyethoxymethyl)-3H-purin-6-one] |  |  | 0.9 | 1.0 |  |  |  | 
COC(=O)C1=C(C#N)NC(C)=C(C(=O)OC(C)C)C1c1cccc([N+](=O)[O-])c1 (centres unmarked) [Nilvadipine, 3-O-methyl 5-O-propan-2-yl 2-cyano-6-methyl-4-(3-nitrophenyl)-1,4-dihydropyridine-3,5-dicarboxylate] |  | hits | 1.6 | 1.5 | increased activity | increased activity |  | 
C[C@]12CC[C@H]3[C@@H](CCC4=CC(=O)CC[C@@H]43)[C@@H]1CC[C@@H]2O [Nandrolone, (8R,9S,10R,13 S,14S,17S)-17-hydroxy-13-methyl-2,6,7,8,9,10,11,12,14,15,16,17-dodecahydro-1H-cyclopenta[a]phenanthren-3-one] |  | hits | 1.2 | 1.1 |  |  |  | 
O=c1[nH]c(=O)c2nc3ccccc3nc2[nH]1 [Alloxazine, 1H-benzo[g]pteridine-2,4-dione] |  | hits | 1.0 | 1.1 | increased activity | increased activity |  | 
COC(=O)N=N/C=C1\C=[N+]([O-])c2ccccc2N1O [Carbodox, methyl N-[(E)-(1-hydroxy-4-oxidoquinoxalin-4-ium-2-ylidene)methyl]iminocarbamate] |  |  | 1.1 | 1.1 |  |  |  | 
CCCCN1CCCC1CNC(=O)c1cc(C#N)c2ccccc2c1OC (centres unmarked) [Nafadotride, N-[(1-butylpyrrolidin-2-yl)methyl]-4-cyano-1-methoxynaphthalene-2-carboxamide] |  |  | 1.1 | 1.0 |  |  |  | 
CC(C)NCC(O)c1ccc(O)c(O)c1 (centres unmarked) [Isoproterenol, 4-[1-hydroxy-2-(propan-2-ylamino)ethyl]benzene-1,2-diol] |  | hits | 1.1 | 1.1 |  |  |  | 
CC(=O)OC1CN2CCC1CC2 (centres unmarked) [Aceclidine, 1-Azabicyclo[2.2.2]oct-3-yl acetate] |  |  | 1.1 | 1.1 |  |  |  | 
CCS(=O)(=O)c1ccc2oc(-c3ccc4ccccc4c3)nc2c1 [ezutromid] |  |  |  |  |  |  | did not significantly increase UTRN levels; also recorded: did not increase utrophin gene expression | did not significantly increase SSPN gene expression; also recorded: did not significantly increase sarcospan levels
